Earlier results on one molecule are cited in patent US11185497B2, “Intranasal delivery of dihydroergotamine by precision olfactory device” (Impel Neuropharma, Inc., priority 2018, dated 2021).

For this data set the following is noted: in vivo.

In the case of `CN1C[C@H](C(=O)N[C@]2(C)O[C@@]3(O)[C@@H]4CCCN4C(=O)[C@H](Cc4ccccc4)N3C2=O)C[C@@H]2c3cccc4[nH]cc(c34)C[C@H]21` [DHE, Dihydroergotamine], the oral bioavailability entry is reported as “poor”.
